Converted amounts (≈) assume the structure as drawn. Each block holds one compound with its values, some of them ahead of it. The source made the active and inactive calls. The calls are words filed in the database; no cut-off is given here.
What was measured:
A-375 = test: Cytotoxicity against human A375 cells after 72 hrs by MTT assay; format: functional, cell-based; conditions: A-375, 72 h
[1] = Cytotoxicity against human HeLa 229 cells after 72 hrs by MTT assay; format: functional, cell-based; conditions: HeLa 229, 72 h
[2] = (§1) Cytotoxicity against mouse Neuro2a cells after 72 hrs by MTT assay; format: functional, cell-based; conditions: N2a
PC-3 = test: Cytotoxicity against human PC3 cells after 72 hrs by MTT assay; format: functional, cell-based; conditions: PC-3, 72 h
[3] = Cytotoxicity against human HK2 cells after 72 hrs by MTT assay; format: cell-based; conditions: HK-2, 72 h
[4] = Cytotoxicity against human MG63 cells after 72 hrs by MTT assay; format: functional, cell-based; conditions: MG-63, 72 h
[5] = target: T1, MAP kinase p38 (Mus musculus) (UniProt P47811+O08911+Q9WUI1+Q9Z1B7); test: Inhibition of p38 phosphorylation in mouse Neuro2a cells assessed as total protein level at 4 ug/ml after 24 hrs by Western blot analysis relative to beta-actin; format: cell-based
[6] = target: T1, MAP kinase p38 (Mus musculus); test: Inhibition of p38 phosphorylation in mouse Neuro2a cells at 2 to 8 ug/ml after 24 hrs by Western blot analysis; format: cell-based
[7] = Antioxidant activity assessed as ABTS free radical scavenging activity; format: functional; conditions: TDE = time-dependent effect
Neuro2a [8] = test: Inhibition of ERK phosphorylation in mouse Neuro2a cells at 8 ug/ml after 24 hrs by Western blot analysis relative to beta-actin; format: cell-based
N2a [9] = test: Induction of apoptosis in mouse Neuro2a cells assessed as activation of caspase-3 using Ac-DEVD-AFC as substrate by fluorometric assay; format: functional, cell-based
[10] = target: RAC-alpha serine/threonine-protein kinase (Mus musculus) (UniProt P31750); test: Inhibition of AKT phosphorylation in mouse Neuro2a cells at 8 ug/ml after 24 hrs by Western blot analysis relative to beta-actin; format: cell-based
Chain of RAC-alpha serine/threonine-protein kinase (Mus musculus) (P31750 whole entry): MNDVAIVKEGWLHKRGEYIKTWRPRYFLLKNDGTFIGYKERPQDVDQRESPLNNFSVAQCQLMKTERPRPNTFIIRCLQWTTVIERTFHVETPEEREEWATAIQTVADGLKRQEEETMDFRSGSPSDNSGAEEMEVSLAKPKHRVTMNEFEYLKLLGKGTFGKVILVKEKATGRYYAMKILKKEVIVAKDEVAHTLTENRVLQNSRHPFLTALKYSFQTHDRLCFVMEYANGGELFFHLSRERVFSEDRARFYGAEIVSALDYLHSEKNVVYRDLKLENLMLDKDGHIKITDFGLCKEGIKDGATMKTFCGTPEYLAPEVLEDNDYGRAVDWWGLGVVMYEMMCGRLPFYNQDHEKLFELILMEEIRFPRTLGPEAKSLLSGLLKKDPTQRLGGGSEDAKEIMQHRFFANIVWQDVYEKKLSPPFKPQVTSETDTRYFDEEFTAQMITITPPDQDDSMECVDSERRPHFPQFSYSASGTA

N2a [11] = test: Cytotoxicity against mouse Neuro2a cells at 8 ug/ml after 24 hrs by MTT assay in presence of NAC; format: functional, cell-based
N2a [12] = test: Induction of apoptosis in mouse Neuro2a cells assessed as activation of caspase-9 using Ac-LEHD-AFC as substrate by fluorometric assay; format: functional, cell-based
[13] = Cell cycle arrest in mouse Neuro2a cells assessed as accumulation at G2/M phase at 2 ug/ml after 72 hrs using propidium iodide staining by flow cytometry analysis (reference value: 9.9%); format: functional, cell-based; conditions: N2a
[14] = Cell cycle arrest in mouse Neuro2a cells assessed as accumulation at G0/G1 phase at 8 ug/ml after 72 hrs using propidium iodide staining by flow cytometry analysis (reference value: 41.6%); format: functional, cell-based; conditions: N2a
Neuro2a [15] = test: Inhibition of JNK phosphorylation in mouse Neuro2a cells assessed as total protein level at 8 ug/ml after 24 hrs by Western blot analysis relative to beta-actin; format: cell-based
Neuro2a [16] = test: Inhibition of ERK phosphorylation in mouse Neuro2a cells at 4 ug/ml after 24 hrs by Western blot analysis relative to beta-actin; format: cell-based
Neuro2a [17] = test: Inhibition of JNK phosphorylation in mouse Neuro2a cells assessed as total protein level at 2 to 8 ug/ml after 24 hrs by Western blot analysis; format: cell-based
[18] = target: RAC-alpha serine/threonine-protein kinase (Mus musculus) (UniProt P31750); test: Inhibition of AKT phosphorylation in mouse Neuro2a cells assessed as total protein level at 4 ug/ml after 24 hrs by Western blot analysis relative to beta-actin; format: cell-based
[19] = target: RAC-alpha serine/threonine-protein kinase (Mus musculus) (UniProt P31750); test: Inhibition of AKT phosphorylation in mouse Neuro2a cells assessed as total protein level at 8 ug/ml after 24 hrs by Western blot analysis relative to beta-actin; format: cell-based
[20] = target: RAC-alpha serine/threonine-protein kinase (Mus musculus) (UniProt P31750); test: Inhibition of AKT phosphorylation in mouse Neuro2a cells at 2 ug/ml after 24 hrs by Western blot analysis relative to beta-actin; format: cell-based
Neuro2a [21] = test: Inhibition of JNK phosphorylation in mouse Neuro2a cells at 4 ug/ml after 24 hrs by Western blot analysis relative to beta-actin; format: cell-based
[22] = Cell cycle arrest in mouse Neuro2a cells assessed as accumulation at S phase at 4 ug/ml after 72 hrs using propidium iodide staining by flow cytometry analysis (reference value: 48.5%); format: functional, cell-based; conditions: N2a
Neuro2a [23] = test: Inhibition of JNK phosphorylation in mouse Neuro2a cells at 2 ug/ml after 24 hrs by Western blot analysis relative to beta-actin; format: cell-based
N2a [24] = test: Induction of apoptosis in mouse Neuro2a cells assessed as reduction of ROS production after 3 hrs by DCF fluorescence assay; format: functional, cell-based
[25] = Cell cycle arrest in mouse Neuro2a cells assessed as accumulation at G0/G1 phase at 2 ug/ml after 72 hrs using propidium iodide staining by flow cytometry analysis (reference value: 41.6%); format: functional, cell-based; conditions: N2a
[26] = Cell cycle arrest in mouse Neuro2a cells assessed as accumulation at S phase at 2 ug/ml after 72 hrs using propidium iodide staining by flow cytometry analysis (reference value: 48.5%); format: functional, cell-based; conditions: N2a
[27] = target: RAC-alpha serine/threonine-protein kinase (Mus musculus) (UniProt P31750); test: Inhibition of AKT phosphorylation in mouse Neuro2a cells assessed as total protein level at 2 ug/ml after 24 hrs by Western blot analysis relative to beta-actin; format: cell-based
[28] = target: RAC-alpha serine/threonine-protein kinase (Mus musculus) (UniProt P31750); test: Inhibition of AKT phosphorylation in mouse Neuro2a cells assessed as total protein level after 24 hrs by Western blot analysis; format: cell-based
[29] = Cell cycle arrest in mouse Neuro2a cells assessed as accumulation at sub-G1 phase at 2 ug/ml after 72 hrs using propidium iodide staining by flow cytometry analysis (reference value: 4.7%); format: functional, cell-based; conditions: N2a
N2a [30] = test: Induction of apoptosis in mouse Neuro2a cells assessed as activation of caspase-8 using IETD-AFC as substrate by fluorometric assay; format: functional, cell-based
[31] = Cell cycle arrest in mouse Neuro2a cells assessed as accumulation at G0/G1 phase at 4 ug/ml after 72 hrs using propidium iodide staining by flow cytometry analysis (reference value: 41.6%); format: functional, cell-based; conditions: N2a
N2a [32] = test: Induction of apoptosis in mouse Neuro2a cells assessed as activation of caspase-9 at 4 ug/ml using Ac-LEHD-AFC as substrate by fluorometric assay relative to control; format: functional
N2a [33] = test: Induction of apoptosis in mouse Neuro2a cells assessed as DNA fragmentation and nuclear condensation after 24 hrs by TUNEL-DAPI co-staining assay; format: functional, cell-based
Neuro2a [34] = test: Inhibition of ERK phosphorylation in mouse Neuro2a cells assessed as total protein level at 4 ug/ml after 24 hrs by Western blot analysis relative to beta-actin; format: cell-based
Neuro2a [35] = test: Inhibition of JNK phosphorylation in mouse Neuro2a cells at 8 ug/ml after 24 hrs by Western blot analysis relative to beta-actin; format: cell-based
[36] = target: T1, MAP kinase p38 (Mus musculus); test: Inhibition of p38 phosphorylation in mouse Neuro2a cells assessed as total protein level at 2 ug/ml after 24 hrs by Western blot analysis relative to beta-actin; format: cell-based
[37] = target: RAC-alpha serine/threonine-protein kinase (Mus musculus) (UniProt P31750); test: Inhibition of AKT phosphorylation in mouse Neuro2a cells at 4 ug/ml after 24 hrs by Western blot analysis relative to beta-actin; format: cell-based
N2a [38] = test: as §1; format: functional, cell-based
[39] = Cell cycle arrest in mouse Neuro2a cells assessed as accumulation at sub-G1 phase after 72 hrs using propidium iodide staining by flow cytometry analysis; format: functional, cell-based; conditions: N2a
[40] = target: RAC-alpha serine/threonine-protein kinase (Mus musculus) (UniProt P31750); test: Inhibition of AKT phosphorylation in mouse Neuro2a cells after 24 hrs by Western blot analysis; format: cell-based
Neuro2a [41] = test: Inhibition of ERK phosphorylation in mouse Neuro2a cells assessed as total protein level at 2 ug/ml after 24 hrs by Western blot analysis relative to beta-actin; format: cell-based
[42] = Cell cycle arrest in mouse Neuro2a cells assessed as accumulation at sub-G1 phase at 8 ug/ml after 72 hrs using propidium iodide staining by flow cytometry analysis (reference value: 4.7%); format: functional, cell-based; conditions: N2a
Neuro2a [43] = test: Inhibition of JNK phosphorylation in mouse Neuro2a cells assessed as total protein level at 4 ug/ml after 24 hrs by Western blot analysis relative to beta-actin; format: cell-based
N2a [44] = test: Induction of apoptosis in mouse Neuro2a cells assessed as activation of caspase-3 at 8 ug/ml using Ac-[…]-AFC as substrate by fluorometric assay relative to control; format: functional
[45] = target: T1, MAP kinase p38 (Mus musculus); test: Inhibition of p38 phosphorylation in mouse Neuro2a cells assessed as total protein level at 8 ug/ml after 24 hrs by Western blot analysis relative to beta-actin; format: cell-based
Neuro2a [46] = test: Inhibition of ERK phosphorylation in mouse Neuro2a cells assessed as total protein level at 8 ug/ml after 24 hrs by Western blot analysis relative to beta-actin; format: cell-based
[47] = Cell cycle arrest in mouse Neuro2a cells assessed as accumulation at S phase at 8 ug/ml after 72 hrs using propidium iodide staining by flow cytometry analysis (reference value: 48.5%); format: functional, cell-based; conditions: N2a
[48] = Cell cycle arrest in mouse Neuro2a cells assessed as accumulation at sub-G1 phase at 4 ug/ml after 72 hrs using propidium iodide staining by flow cytometry analysis (reference value: 4.7%); format: functional, cell-based; conditions: N2a
Neuro2a [49] = test: Inhibition of JNK phosphorylation in mouse Neuro2a cells assessed as total protein level at 2 ug/ml after 24 hrs by Western blot analysis relative to beta-actin; format: cell-based
Neuro2a [50] = test: Inhibition of ERK phosphorylation in mouse Neuro2a cells at 2 ug/ml after 24 hrs by Western blot analysis relative to beta-actin; format: cell-based
[51] = Cell cycle arrest in mouse Neuro2a cells assessed as accumulation at G2/M phase at 8 ug/ml after 72 hrs using propidium iodide staining by flow cytometry analysis (reference value: 9.9%); format: functional, cell-based; conditions: N2a
[52] = Cell cycle arrest in mouse Neuro2a cells assessed as accumulation at G2/M phase at 4 ug/ml after 72 hrs using propidium iodide staining by flow cytometry analysis (reference value: 9.9%); format: functional, cell-based; conditions: N2a

SMILES: O=C(CCC(=O)c1cccs1)c1cccs1
IC50 (A-375): 115 µg/mL (≈ 459 µM) | IC50 [1]: > 400 µg/mL | IC50 [2]: 343 µg/mL (≈ 1370 µM) | IC50 (PC-3): > 400 µg/mL | IC50 [3]: > 400 µg/mL | IC50 [4]: 366 µg/mL (≈ 1460 µM)

fold change (FC) [5]: 1.6 | inhibition [6]: inactive | fold change (FC) [10]: 0.1 | fold change (FC) [18]: 0.7 | fold change (FC) [19]: 0.4 | fold change (FC) [20]: 0.8 | fold change (FC) [27]: 0.8 | inhibition [28]: Dose-dependent effect | fold change (FC) [36]: 1.2 | fold change (FC) [37]: 0.3 | inhibition [40]: Dose-dependent effect | fold change (FC) [45]: 1.7
SMILES: Oc1ccc(-n2c(-c3cccs3)ccc2-c2cccs2)cc1
IC50 (A-375): 27.6 µg/mL (≈ 85.3 µM) | Activity [7]: tde | fold change (FC) (Neuro2a [8]): 0 | Activity (N2a [9]): Dose-dependent effect | growth inhibition (GI) (N2a [11]): Active | Activity (N2a [12]): Dose-dependent effect | Activity [13]: 11.6% | Activity [14]: 44.4% | fold change (FC) (Neuro2a [15]): 0.9 | fold change (FC) (Neuro2a [16]): 0 | inhibition (Neuro2a [17]): inactive | IC50 [1]: 36.4 µg/mL (≈ 113 µM) | fold change (FC) (Neuro2a [21]): 1.6 | Activity [22]: 42.6% | fold change (FC) (Neuro2a [23]): 0.9 | Activity (N2a [24]): Dose-dependent effect | Activity [25]: 39.9% | Activity [26]: 48.5% | Activity [29]: 9.1% | Activity (N2a [30]): Dose-dependent effect | Activity [31]: 46.9% | fold change (FC) (N2a [32]): 1.4 | Activity (N2a [33]): Dose-dependent effect | fold change (FC) (Neuro2a [34]): 0.6 | fold change (FC) (Neuro2a [35]): 2.1 | growth inhibition (GI) (N2a [38]): Dose-dependent effect | IC50 [2]: 2.6 µg/mL (≈ 8.04 µM) | Activity [39]: Dose-dependent effect | fold change (FC) (Neuro2a [41]): 1 | Activity [42]: 26.3% | fold change (FC) (Neuro2a [43]): 1 | fold change (FC) (N2a [44]): 1.5 | IC50 (PC-3): 51.3 µg/mL (≈ 159 µM) | IC50 [3]: 73.4 µg/mL (≈ 227 µM) | IC50 [4]: 39.6 µg/mL (≈ 122 µM) | fold change (FC) (Neuro2a [46]): 0.6 | Activity [47]: 38.9% | Activity [48]: 19.2% | fold change (FC) (Neuro2a [49]): 1 | fold change (FC) (Neuro2a [50]): 0 | Activity [51]: 15.7% | Activity [52]: 10.5%

— ChEMBL document CHEMBL3217578, “Synthesis of a novel thiophene derivative that induces cancer cell apoptosis through modulation of AKT and MAPK pathways” (Medchemcomm, 2012)
